{"source": "patent US20240366775A1", "about": "“HUMAN TRANSFERRIN RECEPTOR BINDING ANTIBODY-PEPTIDE CONJUGATE” (PEPTIDREAM INC., priority 2021, published 2024)", "note": "Where a SMILES comes first, the peptide text is derived from it. Bridges are numbered along the chain shown (N, C = ends). [ ]: non-standard residue; d: D form. The star is where a group is joined. NMeY = CN[C@@H](Cc1ccc(O)cc1)C(=O)O; NMeF = CN[C@@H](Cc1ccccc1)C(=O)O; OSu = O=C1CCC(=O)N1O*; GABA = NCCCC(=O)O"}
{"biological_target": "human transferrin receptor (hTfR) (Homo sapiens, UniProt P02786)", "sequence (P02786 whole entry)": "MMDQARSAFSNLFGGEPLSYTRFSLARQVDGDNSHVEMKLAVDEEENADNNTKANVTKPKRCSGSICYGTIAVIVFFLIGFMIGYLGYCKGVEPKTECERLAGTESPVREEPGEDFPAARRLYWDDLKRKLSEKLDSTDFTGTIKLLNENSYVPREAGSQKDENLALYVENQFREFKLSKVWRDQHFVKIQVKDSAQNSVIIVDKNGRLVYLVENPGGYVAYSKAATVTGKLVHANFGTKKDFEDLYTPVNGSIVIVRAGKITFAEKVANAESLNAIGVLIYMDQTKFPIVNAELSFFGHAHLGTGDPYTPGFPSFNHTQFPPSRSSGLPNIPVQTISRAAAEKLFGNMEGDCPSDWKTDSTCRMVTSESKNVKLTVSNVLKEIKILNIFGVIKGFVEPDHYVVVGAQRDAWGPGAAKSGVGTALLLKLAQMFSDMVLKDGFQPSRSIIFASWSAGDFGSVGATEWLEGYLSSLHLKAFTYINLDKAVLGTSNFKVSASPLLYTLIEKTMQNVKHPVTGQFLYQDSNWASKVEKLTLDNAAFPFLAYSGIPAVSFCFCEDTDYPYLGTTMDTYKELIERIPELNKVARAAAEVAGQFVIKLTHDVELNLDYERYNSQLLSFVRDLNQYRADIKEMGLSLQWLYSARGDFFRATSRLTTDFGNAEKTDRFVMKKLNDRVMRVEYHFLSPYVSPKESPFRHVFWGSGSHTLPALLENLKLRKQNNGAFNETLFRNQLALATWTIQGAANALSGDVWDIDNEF", "experiment": "SPR measurement of peptide binding to hTfR", "settings": "measured on the naked peptide (1st to 15th amino acids, without linker) corresponding to the listed linker-attached peptide; read-out: KD value of binding to hTfR by SPR", "source_text": "(§1) Note that ND indicates No Data (here, it means that no data was obtained).", "units": {"Kd": "nM"}}
{"smiles": "CC[C@H](C)[C@@H]1NC(=O)[C@H](Cc2ccc(O)cc2)NC(=O)[C@H](Cc2ccc(O)cc2)NC(=O)[C@H](CC(N)=O)NC(=O)[C@H](Cc2c[nH]c3ccccc23)N(C)C(=O)[C@H](C(C)C)NC(=O)[C@H](Cc2ccccc2)NC(=O)[C@H](C(C)C)NC(=O)[C@H](C)NC(=O)CSC[C@@H](C(=O)NCC(=O)NCC(=O)N[C@@H](CCCNC(=N)N)C(=O)N[C@@H](CO)C(=O)N[C@@H](CCC(=O)O)C(=O)N[C@@H](CO)C(=O)N[C@@H](CCCCNC(=O)C2CCC(CN3C(=O)C=CC3=O)CC2)C(N)=O)NC(=O)[C@H](Cc2ccc(O)cc2)N(C)C(=O)[C@H](Cc2ccc(O)cc2)NC(=O)[C@H](CCCNC(=N)N)NC(=O)[C@H](CCCNC(=N)N)NC(=O)[C@H]([C@@H](C)CC)NC1=O", "note": "(stereo partly shown) [894_5m_GGRSES_K(Mal)]", "Kd": "< 1"}
{"smiles": "CC[C@H](C)[C@@H]1NC(=O)[C@H](Cc2ccc(O)cc2)NC(=O)[C@H](Cc2ccc(O)cc2)NC(=O)[C@H](CC(N)=O)NC(=O)[C@H](Cc2c[nH]c3ccccc23)NC(=O)[C@H](C(C)C)NC(=O)[C@H](Cc2ccccc2)N(C)C(=O)[C@H](C(C)C)NC(=O)[C@H](C)NC(=O)CSC[C@@H](C(=O)NCC(=O)NCC(=O)N[C@H](CCC(=O)O)C(=O)NCC(=O)NCC(=O)N[C@H](CCC(=O)O)C(=O)NCC(=O)NCC(=O)N[C@H](CCC(=O)O)C(=O)NCC(=O)NCC(=O)N[C@H](CCCCNC(=O)C2CCC(CN3C(=O)C=CC3=O)CC2)C(N)=O)NC(=O)[C@H](Cc2ccc(O)cc2)N(C)C(=O)[C@H](Cc2ccc(O)cc2)NC(=O)[C@H](CCCNC(=N)N)NC(=O)[C@H](CCCNC(=N)N)NC(=O)[C@H]([C@@H](C)CC)NC1=O", "note": "(stereo partly shown) [894_3m_Linke04_dk(Mal)]", "Kd": "1 to 100"}
{"smiles": "CC[C@H](C)[C@@H]1NC(=O)[C@H](Cc2ccc(O)cc2)NC(=O)[C@H](Cc2ccc(O)cc2)NC(=O)[C@H](CC(N)=O)NC(=O)[C@H](Cc2c[nH]c3ccccc23)NC(=O)[C@H](C(C)C)NC(=O)[C@H](Cc2ccccc2)N(C)C(=O)[C@H](C(C)C)NC(=O)[C@H](C)NC(=O)CSC[C@@H](C(=O)NCC(=O)NCC(=O)N[C@@H](CCCNC(=N)N)C(=O)NCC(=O)N[C@@H](CCCNC(=N)N)C(=O)N[C@@H](CO)C(=O)N[C@@H](CCCCNC(=O)C2CCC(CN3C(=O)C=CC3=O)CC2)C(N)=O)NC(=O)[C@H](Cc2ccc(O)cc2)N(C)C(=O)[C@H](Cc2ccc(O)cc2)NC(=O)[C@H](CCCNC(=N)N)NC(=O)[C@H](CCCNC(=N)N)NC(=O)[C@H]([C@@H](C)CC)NC1=O", "note": "(stereo partly shown) [894_3m_GGRGRS_K(Mal)]", "Kd": "1 to 100"}
{"smiles": "CC[C@H](C)[C@@H]1NC(=O)[C@H](Cc2ccc(O)cc2)NC(=O)[C@H](Cc2ccc(O)cc2)NC(=O)[C@H](CC(N)=O)NC(=O)[C@H](Cc2c[nH]c3ccccc23)N(C)C(=O)[C@H](C(C)C)NC(=O)[C@H](Cc2ccccc2)NC(=O)[C@H](C(C)C)NC(=O)[C@H](C)NC(=O)CSC[C@@H](C(=O)NCC(=O)NCC(=O)N[C@@H](CCC(=O)O)C(=O)N[C@@H](CO)C(=O)N[C@@H](CCC(=O)O)C(=O)N[C@@H](CO)C(=O)N[C@@H](CCCCNC(=O)C2CCC(CN3C(=O)C=CC3=O)CC2)C(N)=O)NC(=O)[C@H](Cc2ccc(O)cc2)N(C)C(=O)[C@H](Cc2ccc(O)cc2)NC(=O)[C@H](CCCNC(=N)N)NC(=O)[C@H](CCCNC(=N)N)NC(=O)[C@H]([C@@H](C)CC)NC1=O", "note": "(stereo partly shown) [894_5m_GGESES_K(Mal)]", "Kd": "< 1"}
{"biological_target": "human transferrin receptor (hTfR) (Homo sapiens, UniProt P02786)", "experiment": "SPR measurement of peptide binding to hTfR", "settings": "naked peptide (1st to 15th amino acids, without linker part) corresponding to the listed linker-attached peptide; read-out: SPR of naked peptide (KD for binding to hTfR)", "source_text": "as §1", "units": {"Kd": "nM"}}
{"smiles": "CC[C@H](C)[C@@H]1NC(=O)[C@H](Cc2ccc(O)cc2)NC(=O)[C@H](Cc2ccc(O)cc2)NC(=O)[C@H](CC(N)=O)NC(=O)[C@H](Cc2c[nH]c3ccccc23)NC(=O)[C@H](C(C)C)NC(=O)[C@H](Cc2ccccc2)NC(=O)[C@H](C(C)C)NC(=O)[C@H](C)NC(=O)CSC[C@@H](C(=O)NCCOCCOCCOCCOCCOCCOCCOCCOCCOCCOCCOCCOCCOCCOCCOCCOCCOCCOCCOCCOCCOCCOCCOCCOCCOCCOCCOCCOCCOCCOCCOCCOCCOCCOCCOCCOCCC(=O)ON2C(=O)CCC2=O)NC(=O)[C@H](Cc2ccc(O)cc2)N(C)C(=O)[C@H](Cc2ccc(O)cc2)NC(=O)[C@H](CCCNC(=N)N)NC(=O)[C@H](CCCNC(=N)N)NC(=O)[C@H]([C@@H](C)CC)NC1=O", "note": "[JCR_hTfR_000894_PEG36_(NHS)]", "Kd": "< 1"}
{"smiles": "CC[C@H](C)[C@@H]1NC(=O)[C@H](Cc2ccc(O)cc2)NC(=O)[C@H](Cc2ccc(O)cc2)NC(=O)[C@H](CC(N)=O)NC(=O)[C@H](Cc2c[nH]c3ccccc23)NC(=O)[C@H](C(C)C)NC(=O)[C@H](Cc2ccccc2)NC(=O)[C@H](C(C)C)NC(=O)[C@H](C)NC(=O)CSC[C@@H](C(=O)NCC(=O)N[C@@H](CCC(=O)O)C(=O)NCC(=O)N[C@@H](CCC(=O)O)C(=O)NCCOCCOCCOCCOCCOCCOCCOCCOCCOCCOCCOCCOCCC(=O)NN)NC(=O)[C@H](Cc2ccc(O)cc2)N(C)C(=O)[C@H](Cc2ccc(O)cc2)NC(=O)[C@H](CCCNC(=N)N)NC(=O)[C@H](CCCNC(=N)N)NC(=O)[C@H]([C@@H](C)CC)NC1=O", "note": "[hTfR_894_(GEGE)PEG12_Hydrazide]", "Kd": "< 1"}
{"smiles": "CC[C@H](C)[C@@H]1NC(=O)[C@H](Cc2ccc(O)cc2)NC(=O)[C@H](Cc2ccc(O)cc2)NC(=O)[C@H](CC(N)=O)NC(=O)[C@H](Cc2c[nH]c3ccccc23)NC(=O)[C@H](C(C)C)NC(=O)[C@H](Cc2ccccc2)NC(=O)[C@H](C(C)C)NC(=O)[C@H](C)NC(=O)CSC[C@@H](C(=O)NCCOCCOCCOCCOCCC(=O)NN)NC(=O)[C@H](Cc2ccc(O)cc2)N(C)C(=O)[C@H](Cc2ccc(O)cc2)NC(=O)[C@H](CCCNC(=N)N)NC(=O)[C@H](CCCNC(=N)N)NC(=O)[C@H]([C@@H](C)CC)NC1=O", "note": "[hTIR 000894_PEG4_(Hydrazide)]", "Kd": "< 1"}
{"smiles": "CC[C@H](C)[C@@H]1NC(=O)[C@H](Cc2ccc(O)cc2)NC(=O)[C@H](Cc2ccc(O)cc2)NC(=O)[C@H](CC(N)=O)NC(=O)[C@H](Cc2c[nH]c3ccccc23)NC(=O)[C@H](C(C)C)NC(=O)[C@H](Cc2ccccc2)NC(=O)[C@H](C(C)C)NC(=O)[C@H](C)NC(=O)CSC[C@@H](C(=O)NCCOCCOCCOCCOCCOCCOCCOCCOCCOCCOCCOCCOCCC(=O)N[C@@H](CCCCNC(=O)C2CCC(CN3C(=O)C=CC3=O)CC2)C(N)=O)NC(=O)[C@H](Cc2ccc(O)cc2)N(C)C(=O)[C@H](Cc2ccc(O)cc2)NC(=O)[C@H](CCCNC(=N)N)NC(=O)[C@H](CCCNC(=N)N)NC(=O)[C@H]([C@@H](C)CC)NC1=O", "note": "(stereo partly shown) [hTfR_000894_PEG11_K (Maleimide)]", "Kd": "< 1"}
{"smiles": "CC[C@H](C)[C@@H]1NC(=O)[C@H](Cc2ccc(O)cc2)NC(=O)[C@H](Cc2ccc(O)cc2)NC(=O)[C@H](CC(N)=O)NC(=O)[C@H](Cc2c[nH]c3ccccc23)NC(=O)[C@H](C(C)C)NC(=O)[C@H](Cc2ccccc2)NC(=O)[C@H](C(C)C)NC(=O)[C@H](C)NC(=O)CSC[C@@H](C(=O)NCCOCCOCCOCCOCCOCCOCCOCCOCCOCCOCCOCCOCCC(=O)NN)NC(=O)[C@H](Cc2ccc(O)cc2)N(C)C(=O)[C@H](Cc2ccc(O)cc2)NC(=O)[C@H](CCCNC(=N)N)NC(=O)[C@H](CCCNC(=N)N)NC(=O)[C@](C)([C@@H](C)CC)NC1=O", "note": "[hTfR_000894_PEG11_(Hydrazine)]", "Kd": "< 1"}
{"smiles": "CC[C@H](C)[C@@H]1NC(=O)[C@H](Cc2ccc(O)cc2)NC(=O)[C@H](Cc2ccc(O)cc2)NC(=O)[C@H](CC(N)=O)NC(=O)[C@H](Cc2c[nH]c3ccccc23)NC(=O)[C@H](C(C)C)NC(=O)[C@H](Cc2ccccc2)N(C)C(=O)[C@H](C(C)C)NC(=O)[C@H](C)NC(=O)CSC[C@@H](C(=O)NCC(=O)NCC(=O)N[C@@H](CCC(N)=O)C(=O)NCC(=O)N[C@@H](CCC(N)=O)C(=O)N[C@@H](CO)C(=O)NCC(=O)NCC(=O)N[C@@H](CCC(N)=O)C(=O)NCC(=O)N[C@@H](CCC(N)=O)C(=O)N[C@@H](CO)C(=O)NCCCC(=O)ON2C(=O)CCC2=O)NC(=O)[C@H](Cc2ccc(O)cc2)N(C)C(=O)[C@H](Cc2ccc(O)cc2)NC(=O)[C@H](CCCNC(=N)N)NC(=O)[C@H](CCCNC(=N)N)NC(=O)[C@H]([C@@H](C)CC)NC1=O", "note": "[894_3m_GGQGQSx2_gAbu(NHS)] ({CH2CO}-AV[NMeF]VWNYYIIRRY[NMeY]CGGQGQSGGQGQS[GABA]-OSu; thioether N-15)", "Kd": "1 to 100"}
{"smiles": "CC[C@H](C)[C@@H]1NC(=O)[C@H](Cc2ccc(O)cc2)NC(=O)[C@H](Cc2ccc(O)cc2)NC(=O)[C@H](CC(N)=O)NC(=O)[C@H](Cc2c[nH]c3ccccc23)NC(=O)[C@H](C(C)C)NC(=O)[C@H](Cc2ccccc2)NC(=O)[C@H](C(C)C)NC(=O)[C@H](C)NC(=O)CSC[C@@H](C(=O)NCCOCCOCCOCCOCCOCCOCCOCCOCCOCCOCCOCCOCCOCCOCCOCCOCCOCCOCCOCCOCCOCCOCCOCCOCCOCCOCCOCCOCCOCCOCCOCCOCCOCCOCCOCCOCCC(=O)NN)NC(=O)[C@H](Cc2ccc(O)cc2)N(C)C(=O)[C@H](Cc2ccc(O)cc2)NC(=O)[C@H](CCCNC(=N)N)NC(=O)[C@H](CCCNC(=N)N)NC(=O)[C@H]([C@@H](C)CC)NC1=O", "note": "[hTIR_000894_PEG36_(Hydrazine)]", "Kd": "< 1"}
{"smiles": "CC[C@H](C)[C@@H]1NC(=O)[C@H](Cc2ccc(O)cc2)NC(=O)[C@H](Cc2ccc(O)cc2)NC(=O)[C@H](CC(N)=O)NC(=O)[C@H](Cc2c[nH]c3ccccc23)NC(=O)[C@H](C(C)C)NC(=O)[C@H](Cc2ccccc2)N(C)C(=O)[C@H](C(C)C)NC(=O)[C@H](C)NC(=O)CSC[C@@H](C(=O)NCC(=O)NCC(=O)NCC(=O)NCC(=O)N[C@@H](CO)C(=O)N[C@@H](CO)C(=O)N[C@@H](CCCCn2cc(CN3C(=O)C=CC3=O)nn2)C(N)=O)NC(=O)[C@H](Cc2ccc(O)cc2)N(C)C(=O)[C@H](Cc2ccc(O)cc2)NC(=O)[C@H](CCCNC(=N)N)NC(=O)[C@H](CCCCN)NC(=O)[C@H]([C@@H](C)CC)NC1=O", "note": "[894_11K_3MeF_G4S2_KTrzMal]", "Kd": "1 to 100"}
{"smiles": "CC[C@H](C)[C@@H]1NC(=O)[C@H](Cc2ccc(O)cc2)NC(=O)[C@H](Cc2ccc(O)cc2)NC(=O)[C@H](CC(N)=O)NC(=O)[C@H](Cc2c[nH]c3ccccc23)N(C)C(=O)[C@H](C(C)C)NC(=O)[C@H](Cc2ccccc2)N(C)C(=O)[C@H](C(C)C)NC(=O)[C@H](C)NC(=O)CSC[C@@H](C(=O)NCC(=O)NCC(=O)NCC(=O)NCC(=O)N[C@@H](CO)C(=O)N[C@@H](CO)C(=O)N[C@@H](CCCCn2cc(CN3C(=O)C=CC3=O)nn2)C(N)=O)NC(=O)[C@H](Cc2ccc(O)cc2)N(C)C(=O)[C@H](Cc2ccc(O)cc2)NC(=O)[C@H](CCCNC(=N)N)NC(=O)[C@H](CCCCN)NC(=O)[C@H]([C@@H](C)CC)NC1=O", "note": "[894_11K_3Me_5Me_G4S2_KTrzMal]", "Kd": "1 to 100"}
